Laboratory results published in patent US20100136024A1, “Selective Inhibition of Histone Deacetylase 6 for Ocular Neuroprotection or for Treatment or Control of Glaucoma” (priority 2008, published 2010).
Read-outs that look alike come from different tables or passages of the source.

How the values were obtained:
[1] = molecular target: T1, HDAC6 (Homo sapiens, UniProt Q9UBN7); settings: Itoh et al. enzyme assay; cited from earlier work
T1 sequence (Q9UBN7 1-1215): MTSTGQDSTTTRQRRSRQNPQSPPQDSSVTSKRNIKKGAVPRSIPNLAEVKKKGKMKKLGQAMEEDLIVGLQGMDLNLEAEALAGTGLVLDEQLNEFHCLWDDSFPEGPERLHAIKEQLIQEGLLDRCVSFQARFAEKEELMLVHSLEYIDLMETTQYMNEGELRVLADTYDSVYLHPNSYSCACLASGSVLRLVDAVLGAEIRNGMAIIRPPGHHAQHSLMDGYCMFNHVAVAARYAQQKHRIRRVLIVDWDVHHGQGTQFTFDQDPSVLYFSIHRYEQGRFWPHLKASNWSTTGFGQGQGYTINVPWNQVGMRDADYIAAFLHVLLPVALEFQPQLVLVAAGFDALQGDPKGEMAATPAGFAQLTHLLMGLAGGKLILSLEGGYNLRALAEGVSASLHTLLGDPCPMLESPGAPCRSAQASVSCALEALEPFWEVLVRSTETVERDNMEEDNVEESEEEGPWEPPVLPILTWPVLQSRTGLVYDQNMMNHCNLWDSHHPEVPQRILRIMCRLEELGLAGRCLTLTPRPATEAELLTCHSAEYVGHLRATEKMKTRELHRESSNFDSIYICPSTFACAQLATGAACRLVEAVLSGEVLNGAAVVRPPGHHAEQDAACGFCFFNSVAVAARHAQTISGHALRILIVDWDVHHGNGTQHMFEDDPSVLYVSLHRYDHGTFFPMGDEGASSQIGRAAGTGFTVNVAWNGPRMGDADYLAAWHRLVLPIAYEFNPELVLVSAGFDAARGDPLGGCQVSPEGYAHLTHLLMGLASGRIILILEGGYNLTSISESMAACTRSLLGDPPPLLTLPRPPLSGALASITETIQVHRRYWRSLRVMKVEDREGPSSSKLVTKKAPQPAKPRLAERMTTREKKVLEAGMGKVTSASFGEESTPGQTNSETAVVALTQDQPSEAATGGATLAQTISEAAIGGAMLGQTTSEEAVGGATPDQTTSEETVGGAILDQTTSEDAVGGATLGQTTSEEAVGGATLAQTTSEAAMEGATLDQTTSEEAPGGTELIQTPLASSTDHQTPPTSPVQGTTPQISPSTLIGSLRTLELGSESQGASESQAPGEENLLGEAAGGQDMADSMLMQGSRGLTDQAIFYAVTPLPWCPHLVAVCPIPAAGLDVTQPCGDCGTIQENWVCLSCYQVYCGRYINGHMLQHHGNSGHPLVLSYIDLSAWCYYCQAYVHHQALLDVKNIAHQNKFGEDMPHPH

[2] = test system: histone acetylation, gene-expression patterns, cell-cycle progression; settings: Haggarty et al.; cited from earlier work
[3] = test system: HDAC6-mediated α-tubulin deacetylation; settings: Haggarty et al.; cited from earlier work
[4] = test system: A549 cells; settings: cited from earlier work
[5] = molecular target: T1, HDAC6; assay: HDAC6 inhibition and selectivity, '853 Patent; type: biochemical; settings: worked out from the IC50 of '853 Patent FIG. 3
Text: Id., col. 114, lines 64-65. […] Id., col. 115, lines 37-38. […] Id., col. 137.
The '853 Patent provides, in its FIG. 3, the following data regarding the HDAC6 selective activity of compound 10, in comparison with other preferred but non-selective inhibitors of HDAC1 and HDAC6, i.e., compounds 8 and 9: […]

[6] = molecular target: T1, HDAC6; settings: '853 Patent FIG. 3; read-out: Inhibiting Concentration IC50 for HDAC6; cited from earlier work
[7] = molecular target: HDAC1 (Homo sapiens, UniProt Q13547); settings: '853 Patent FIG. 3; read-out: Inhibiting Concentration IC50 for HDAC1; cited from earlier work
Chain of HDAC1 (Q13547 whole entry, species assumed): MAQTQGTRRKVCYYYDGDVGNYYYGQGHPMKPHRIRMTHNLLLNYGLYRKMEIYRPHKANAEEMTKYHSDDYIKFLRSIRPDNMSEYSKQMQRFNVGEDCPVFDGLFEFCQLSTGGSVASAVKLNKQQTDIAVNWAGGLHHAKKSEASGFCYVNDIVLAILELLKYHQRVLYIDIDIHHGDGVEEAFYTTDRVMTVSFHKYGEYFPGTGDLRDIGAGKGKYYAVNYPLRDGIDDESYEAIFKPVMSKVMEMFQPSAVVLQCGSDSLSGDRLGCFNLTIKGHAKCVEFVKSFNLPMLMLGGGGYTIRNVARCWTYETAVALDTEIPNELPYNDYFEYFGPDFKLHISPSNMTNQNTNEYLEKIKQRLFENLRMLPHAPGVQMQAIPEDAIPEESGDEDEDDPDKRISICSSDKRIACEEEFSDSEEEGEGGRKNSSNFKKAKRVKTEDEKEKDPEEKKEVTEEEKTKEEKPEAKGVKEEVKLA

For `CC(C)(C)OC(=O)N[C@@H](CCCCCS)C(=O)NC1CCCCC1` [Compound 17a, (S)-tert-butyl 1-(cyclohexylamino)-7-mercapto-1-oxoheptan-2-ylcarbamate], the “selectivity HDAC1/HDAC6 (HDAC1 IC50/HDAC6 IC50)” value (“selectivity HDAC1/HDAC6” for short) [1] is listed as 35 and the “selectivity HDAC4/HDAC6 (HDAC4 IC50/HDAC6 IC50)” value (“selectivity HDAC4/HDAC6” below) [1] is listed as 32.
In the case of `CC(C)(C)OC(=O)N[C@@H](CCCCCS)C(=O)Nc1cnc2ccccc2c1` [Compound 15a], the IC50 [1] is listed as 32 nM, the “selectivity HDAC1/HDAC6” value [1] is listed as 1.6 and the “selectivity HDAC4/HDAC6” value [1] is listed as 1.0.
For `CC(C)(C)OC(=O)N[C@@H](CCCCCS)C(=O)Nc1cccc(-c2ccccc2)c1` [Compound 13a], the IC50 [1] is given as 54 nM, the “selectivity HDAC1/HDAC6” value [1] is given as 1.6 and the “selectivity HDAC4/HDAC6” value [1] is given as 1.0.
For `CC(C)(C)OC(=O)N[C@@H](CCCCCS)C(=O)NC1CCCC1` [Compound 16a, (S)-tert-butyl 1-(cyclopentylamino)-7-mercapto-1-oxoheptan-2-ylcarbamate], the “selectivity HDAC1/HDAC6” value [1] is listed as 42 and the “selectivity HDAC4/HDAC6” value [1] is listed as 36.
For `CC(C)(C)NC(=O)[C@H](CCCCCS)NC(=O)OC(C)(C)C` [Compound 19a, (S)-tert-butyl 1-(tert-butylamino)-7-mercapto-1-oxoheptan-2-ylcarbamate], the IC50 [1] is given as 71 nM, the “selectivity HDAC1/HDAC6” value [1] is given as 42 and the “selectivity HDAC4/HDAC6” value [1] is given as 26.
For `CC(C)(C)OC(=O)N[C@@H](CCCCCS)C(=O)NC1CCCCCC1` [Compound 18a, (S)-tert-butyl 1-(cycloheptylamino)-7-mercapto-1-oxoheptan-2-ylcarbamate], the “selectivity HDAC1/HDAC6” value [1] is given as 39 and the “selectivity HDAC4/HDAC6” value [1] is given as 37.
For `O=C(CCCCCCC(=O)Nc1ccc([C@H]2O[C@@H](CSc3nc(-c4ccccc4)c(-c4ccccc4)o3)C[C@@H](c3ccc(CO)cc3)O2)cc1)NO` [tubacin], the “effect on level of histone acetylation, gene-expression patterns, or cell-cycle progression” value [2] is given as “does not affect”, the “inhibition of α-tubulin deacetylation” value [3] is given as “selective and reversible inhibitor” and the “effect on histone (lysine) acetylation” value [4] is given as “no effect”. The “concentration at which α-tubulin activity (acetylation) is increased” value ([4]; concentrations as low as) was ≤ 125 nM.
For `CC(C)(C)OC(=O)N[C@@H](CCCCCS)C(=O)NC12CC3CC(CC(C3)C1)C2` [Compound 20a, (S)-tert-butyl 1-(adamant-1-ylamino)-7-mercapto-1-oxoheptan-2-ylcarbamate], the IC50 [1] is listed as 82 nM, the “selectivity HDAC1/HDAC6” value [1] is listed as 46 and the “selectivity HDAC4/HDAC6” value [1] is listed as 51.
In the case of `O=C(CCCC(=O)NCc1ccccc1)NO` [Compound 10], the “times more selective for HDAC6 than HDAC1” value [5] is listed as “about four”, the IC50 [6] is listed as 380 ± 40 nM and the IC50 [7] is listed as 1500 ± 500 nM.
